Data taken from patent publication US9546156B2, “N-bicyclic aryl,N'-pyrazolyl urea, thiourea, guanidine cyanoguanidine compounds as TrkA kinase inhibitors” (Array BioPharma Inc., priority 2012, dated 2017).
Counter-ions that a name gives are not always drawn.

target: T1, His-tagged recombinant human TrkA (Homo sapiens, UniProt P04629); test: TrkA LanthaScreen Eu Kinase Binding Assay; details: averaged IC50; TR-FRET binding assay, 60 min, 22° C.; read-out: TrkA Enzyme IC50
T1 construct: 6HIS tagged cytoplasmic domain from Invitrogen, Catalog No. PV3144; purchased Invitrogen PV3144
T1 sequence (P04629 440-796 limits assumed): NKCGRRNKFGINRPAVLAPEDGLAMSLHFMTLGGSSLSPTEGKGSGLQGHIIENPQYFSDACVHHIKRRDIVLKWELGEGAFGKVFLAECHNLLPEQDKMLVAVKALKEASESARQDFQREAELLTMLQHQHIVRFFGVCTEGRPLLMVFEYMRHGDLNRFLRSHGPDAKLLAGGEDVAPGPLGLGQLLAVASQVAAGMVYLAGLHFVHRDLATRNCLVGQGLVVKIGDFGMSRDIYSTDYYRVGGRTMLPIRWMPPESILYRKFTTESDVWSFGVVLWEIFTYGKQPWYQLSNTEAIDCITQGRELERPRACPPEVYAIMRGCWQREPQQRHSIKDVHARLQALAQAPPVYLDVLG
Description: TrkA binding activity was determined in a TrkA LanthaScreen™ Eu Kinase Binding Assay. 5 nM His-tagged recombinant human TrkA (6HIS tagged cytoplasmic domain from Invitrogen, Catalog No. PV3144) was incubated with 4 nM Alexa-Fluor® Tracer 236 (Invitrogen Cat. No. PV5592), 2 nM biotinylated anti-His (Invitrogen Cat. No. PV6090), and 2 nM europium-labeled Streptavidin (Invitrogen Cat. No. PV5899), in buffer (25 mM MOPS, pH 7.5, 5 mM MgCl2, 0.005% Triton X-100). Three fold serial dilutions of compounds of the invention in DMSO were added to a final percentage of 2% DMSO. After 60-minute incubation at 22° C., the reaction was measured using the EnVision multimode plate reader (PerkinElmer) via TR-FRET dual wavelength detection at […]. The percent of control was calculated using a ratiometric emission factor. The IC50 values were determined by fitting a four parameter model to the percent of control data.
Table A provides averaged IC50 values for compounds of the invention when tested in the assay of Example A, where A represents an averaged IC50 value <100 nM; B represents an averaged IC50 value from 100 to 1,000 nM; and C represents an averaged IC50 value from 1,000 to 10,000 nM.

IC50	Compound
< 100 nM	Cc1c(C2CCN(C)CC2)nn(-c2ccccc2)c1NC(=O)Nc1ccc(Cl)c2ccccc12 [Example 14, 1-(4-chloronaphthalen-1-yl)-3-(4-methyl-3-(1-methylpiperidin-4-yl)-1-phenyl-1H-pyrazol-5-yl)urea hydrochloride]
< 100 nM	COC[C@H](O)COc1nn(-c2ccccc2)c(NC(=O)Nc2ccc(Cl)c3ccccc23)c1C [Example 15, (S)-1-(4-chloronaphthalen-1-yl)-3-(3-(2-hydroxy-3-methoxypropoxy)-4-methyl-1-phenyl-1H-pyrazol-5-yl)urea]
< 100 nM	COCc1ccc2cccc(NC(=O)Nc3c(C)c(-c4ccc(=O)n(C)c4)nn3-c3ccccc3)c2c1 [Example 17, 1-(7-(methoxymethyl)naphthalen-1-yl)-3-(4-methyl-3-(1-methyl-6-oxo-1,6-dihydropyridin-3-yl)-1-phenyl-1H-pyrazol-5-yl)urea]
< 100 nM	COCc1ccc2ccc(Cl)c(NC(=O)Nc3c(C)c(-c4cnn(C)c4)nn3-c3ccccc3)c2c1 [Example 18, 1-(2-chloro-7-(methoxymethyl)naphthalen-1-yl)-3-(1′,4-dimethyl-1-phenyl-1H,1′H-[3,4′-bipyrazol]-5-yl)urea]
< 100 nM	COCc1ccc2c(Cl)ccc(NC(=O)Nc3c(C)c(-c4cnn(C)c4)nn3-c3ccccc3)c2c1 [Example 19, 1-(4-chloro-7-(methoxymethyl)naphthalen-1-yl)-3-(1′,4-dimethyl-1-phenyl-1H,1′H-[3,4′-bipyrazol]-5-yl)urea]
< 100 nM	COCc1ccc2c(Cl)ccc(NC(=O)Nc3c(C)c(C4CCN(C)CC4)nn3-c3ccccc3)c2c1 [Example 20, 1-(4-chloro-7-(methoxymethyl)naphthalen-1-yl)-3-(4-methyl-3-(1-methylpiperidin-4-yl)-1-phenyl-1H-pyrazol-5-yl)urea hydrochloride]
< 100 nM	COCc1ccc2c(Cl)ccc(NC(=O)Nc3c(C)c(-c4ccc(=O)n(C)c4)nn3-c3ccccc3)c2c1 [Example 21, 1-(4-chloro-7-(methoxymethyl)naphthalen-1-yl)-3-(4-methyl-3-(1-methyl-6-oxo-1,6-dihydropyridin-3-yl)-1-phenyl-1H-pyrazol-5-yl)urea]
1000 to 10000 nM	Cc1c(C2CCNCC2)nn(-c2ccccc2)c1NC(=O)Nc1ncc(Cl)c2ccccc12 [Example 22, 1-(4-chloroisoquinolin-1-yl)-3-(4-methyl-1-phenyl-3-(piperidin-4-yl)-1H-pyrazol-5-yl)urea hydrochloride]
1000 to 10000 nM	Cc1c(-c2cnn(C)c2)nn(-c2ccccc2)c1NC(=O)Nc1ncc(Cl)c2ccccc12 [Example 23, 1-(4-chloroisoquinolin-1-yl)-3-(1′,4-dimethyl-1-phenyl-1H,1′H-[3,4′-bipyrazol]-5-yl)urea]
1000 to 10000 nM	Cc1c(-c2cnn(C)c2)nn(-c2ccccc2)c1NC(=O)Nc1cncc2ccccc12 [Example 24, 1-(1′,4-dimethyl-1-phenyl-1H,1′H-3,4′-bipyrazol-5-yl)-3-(isoquinolin-4-yl)urea]
100 to 1000 nM	Cc1c(-c2ccc(=O)n(C)c2)nn(-c2ccccc2)c1NC(=O)Nc1cncc2ccccc12 [Example 25, 1-(isoquinolin-4-yl)-3-(4-methyl-3-(1-methyl-6-oxo-1,6-dihydropyridin-3-yl)-1-phenyl-1H-pyrazol-5-yl)urea]

The remaining lines, values behind:

Compound	IC50
Cc1c(-c2ccc(=O)n(C)c2)nn(-c2ccccc2)c1NC(=O)Nc1ccc(Cl)c2ccccc12 [Example 1, 1-(4-chloronaphthalen-1-yl)-3-(4-methyl-3-(1-methyl-6-oxo-1,6-dihydropyridin-3-yl)-1-phenyl-1H-pyrazol-5-yl)urea]	< 100 nM
O=C(Nc1ccc(Cl)c2ccccc12)Nc1c2c(nn1-c1ccccc1)CCC2 [Example 2, 1-(4-chloronaphthalen-1-yl)-3-(2-phenyl-2,4,5,6-tetrahydrocyclopenta[c]pyrazol-3-yl)urea]	< 100 nM
COCc1cc2c(NC(=O)Nc3c(C)c(-c4cnn(C)c4)nn3-c3ccccc3)cccc2cn1 [Example 3, 1-(1′,4-dimethyl-1-phenyl-1H,1′H-[3,4′-bipyrazol]-5-yl)-3-(3-(methoxymethyl)isoquinolin-5-yl)urea trifluoroacetate]	< 100 nM
COCc1cc2c(NC(=O)Nc3c(C)c(-c4cnn(C)c4)nn3-c3ccccc3)c(Cl)ccc2cn1 [Example 4, 1-(6-chloro-3-(methoxymethyl)isoquinolin-5-yl)-3-(1′,4-dimethyl-1-phenyl-1H,1′H-[3,4′-bipyrazol]-5-yl)urea]	100 to 1000 nM
COCc1cc2c(NC(=O)Nc3c(C)c(-c4cnn(C)c4)nn3-c3ccccc3)ccc(Br)c2cn1 [Example 5, 1-(8-bromo-3-(methoxymethyl)isoquinolin-5-yl)-3-(1′,4-dimethyl-1-phenyl-1H,1′H-[3,4′-bipyrazol]-5-yl)urea]	< 100 nM
COCc1cc2c(NC(=O)Nc3c(C)c(-c4cnn(C)c4)nn3-c3ccccc3)ccc(Cl)c2cn1 [Example 6, 1-(8-chloro-3-(methoxymethyl)isoquinolin-5-yl)-3-(1′,4-dimethyl-1-phenyl-1H,1′H-[3,4′-bipyrazol]-5-yl)urea]	< 100 nM
Cc1c(C(N)=O)nn(-c2ccccc2)c1NC(=O)Nc1ccc(Cl)c2ccccc12 [Example 7, 5-(3-(4-chloronaphthalen-1-yl)ureido)-4-methyl-1-phenyl-1H-pyrazole-3-carboxamide]	< 100 nM
CNC(=O)c1nn(-c2ccccc2)c(NC(=O)Nc2ccc(Cl)c3ccccc23)c1C [Example 8, 5-(3-(4-chloronaphthalen-1-yl)ureido)-N,4-dimethyl-1-phenyl-1H-pyrazole-3-carboxamide]	< 100 nM
Cc1c(-c2cnn(C)c2)nn(-c2ccccc2)c1NC(=O)Nc1ccc(Cl)c2ccccc12 [Example 9, 1-(4-chloronaphthalen-1-yl)-3-(1′,4-dimethyl-1-phenyl-1H,1′H-[3,4′-bipyrazol]-5-yl)urea]	< 100 nM
Cc1c(-c2cnn(C)c2)nn(-c2ccccc2)c1NC(=O)Nc1cccc2ccccc12 [Example 10, 1-(1′,4-dimethyl-1-phenyl-1H,1′H-[3,4′-bipyrazol]-5-yl)-3-(naphthalen-1-yl)urea]	100 to 1000 nM
O=C(Nc1ccc(Cl)c2ccccc12)Nc1c(Cl)c(OCC2CCNCC2)nn1-c1ccccc1 [Example 11, 1-(4-chloro-1-phenyl-3-(piperidin-4-ylmethoxy)-1H-pyrazol-5-yl)-3-(4-chloronaphthalen-1-yl)urea hydrochloride]	< 100 nM
Cc1c(C2CCNCC2)nn(-c2ccccc2)c1NC(=O)Nc1ccc(Cl)c2ccccc12 [Example 12, 1-(4-chloronaphthalen-1-yl)-3-(4-methyl-1-phenyl-3-(piperidin-4-yl)-1H-pyrazol-5-yl)urea hydrochloride]	< 100 nM
Cc1c(C2CCN(CC(F)(F)F)CC2)nn(-c2ccccc2)c1NC(=O)Nc1ccc(Cl)c2ccccc12 [Example 13, 1-(4-chloronaphthalen-1-yl)-3-(4-methyl-1-phenyl-3-(1-(2,2,2-trifluoroethyl)piperidin-4-yl)-1H-pyrazol-5-yl)urea]	< 100 nM
